# Results published in patent publication US9422267B2, “Fused pyrimidine compounds and use thereof” (Medivation Technologies, Inc., priority 2012, dated 2016).
# Key:
# [1] = target: ITK (Homo sapiens, UniProt Q08881); test: Caliper kinase profiling: ITK; assay type: biochemical; settings: read-out: Average % Inh @ 1 μM
# [2] = target: FLT3 (Homo sapiens, UniProt P36888); test: Caliper kinase profiling: FLT3; assay type: biochemical; settings: FLT3, 1 μM; read-out: Average % Inh @ 1 μM
# [3] = target: T1, Abl(H396P) (Homo sapiens, UniProt P00519, H396P); test: Caliper kinase profiling: Abl(H396P); assay type: biochemical; settings: read-out: Average % Inh @ 1 μM
# T1 construct: purchased Caliper LifeSciences (ProfilerPro Kinase Selectivity Assay Kits)
# [4] = target: T2, ABL1(Y253F) (Homo sapiens, UniProt P00519, Y253F); test: Caliper kinase profiling: ABL1(Y253F); assay type: biochemical; settings: read-out: Average % Inh @ 1 μM
# T2 construct: purchased Caliper LifeSciences (ProfilerPro Kinase Selectivity Assay Kits)
# [5] = target: FRK (Homo sapiens, UniProt P42685); test: Caliper kinase profiling: FRK; assay type: biochemical; settings: read-out: Average % Inh @ 1 μM
# FRK, sequence (P42685 whole entry): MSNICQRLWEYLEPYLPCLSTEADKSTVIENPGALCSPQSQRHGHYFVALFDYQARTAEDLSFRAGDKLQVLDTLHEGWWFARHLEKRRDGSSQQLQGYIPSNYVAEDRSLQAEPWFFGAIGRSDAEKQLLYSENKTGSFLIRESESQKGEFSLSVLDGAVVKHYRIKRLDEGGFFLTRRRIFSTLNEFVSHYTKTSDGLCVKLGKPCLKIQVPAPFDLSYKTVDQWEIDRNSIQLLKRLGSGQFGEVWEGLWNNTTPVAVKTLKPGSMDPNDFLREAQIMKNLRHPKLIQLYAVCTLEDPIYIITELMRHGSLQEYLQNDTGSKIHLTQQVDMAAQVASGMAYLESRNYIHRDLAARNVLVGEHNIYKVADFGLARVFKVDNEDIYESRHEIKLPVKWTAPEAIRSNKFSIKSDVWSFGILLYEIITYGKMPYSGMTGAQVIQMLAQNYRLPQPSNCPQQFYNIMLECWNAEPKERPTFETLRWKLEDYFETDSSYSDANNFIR
# [6] = target: EPHA5 (Homo sapiens, UniProt P54756); test: Caliper kinase profiling: EPHA5; assay type: biochemical; settings: EPHA5, 1 μM; read-out: Average % Inh @ 1 μM
# EPHA5, sequence (P54756 25-1037): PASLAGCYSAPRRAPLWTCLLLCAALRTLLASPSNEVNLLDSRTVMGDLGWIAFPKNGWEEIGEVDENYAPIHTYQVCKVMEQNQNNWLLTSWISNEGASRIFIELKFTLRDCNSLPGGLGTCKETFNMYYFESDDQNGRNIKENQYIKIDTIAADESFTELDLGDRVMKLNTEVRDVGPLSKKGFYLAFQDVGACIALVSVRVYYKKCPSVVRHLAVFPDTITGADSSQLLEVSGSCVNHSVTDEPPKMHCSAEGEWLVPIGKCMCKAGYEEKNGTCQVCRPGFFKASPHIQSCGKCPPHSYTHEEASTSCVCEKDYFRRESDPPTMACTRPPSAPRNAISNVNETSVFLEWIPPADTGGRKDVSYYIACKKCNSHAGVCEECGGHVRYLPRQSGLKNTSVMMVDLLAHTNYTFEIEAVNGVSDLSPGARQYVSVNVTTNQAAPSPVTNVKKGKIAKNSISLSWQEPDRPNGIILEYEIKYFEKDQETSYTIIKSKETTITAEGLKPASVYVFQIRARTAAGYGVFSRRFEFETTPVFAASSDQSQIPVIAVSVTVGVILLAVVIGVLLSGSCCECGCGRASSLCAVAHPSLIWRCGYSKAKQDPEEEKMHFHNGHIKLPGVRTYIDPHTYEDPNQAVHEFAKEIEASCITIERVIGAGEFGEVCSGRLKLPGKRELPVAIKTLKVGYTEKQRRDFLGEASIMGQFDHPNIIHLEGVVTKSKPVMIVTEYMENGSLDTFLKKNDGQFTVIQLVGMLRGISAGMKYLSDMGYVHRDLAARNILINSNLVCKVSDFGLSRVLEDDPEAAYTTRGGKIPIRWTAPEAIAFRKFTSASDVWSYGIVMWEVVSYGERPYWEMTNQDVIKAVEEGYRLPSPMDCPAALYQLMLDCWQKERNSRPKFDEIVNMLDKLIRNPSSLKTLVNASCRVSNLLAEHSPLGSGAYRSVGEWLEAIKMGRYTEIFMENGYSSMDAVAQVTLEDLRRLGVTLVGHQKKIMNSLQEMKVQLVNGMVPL
# [7] = target: Yes (Homo sapiens, UniProt P07947); test: Caliper kinase profiling: Yes; assay type: biochemical
# Yes, sequence (P07947 whole entry): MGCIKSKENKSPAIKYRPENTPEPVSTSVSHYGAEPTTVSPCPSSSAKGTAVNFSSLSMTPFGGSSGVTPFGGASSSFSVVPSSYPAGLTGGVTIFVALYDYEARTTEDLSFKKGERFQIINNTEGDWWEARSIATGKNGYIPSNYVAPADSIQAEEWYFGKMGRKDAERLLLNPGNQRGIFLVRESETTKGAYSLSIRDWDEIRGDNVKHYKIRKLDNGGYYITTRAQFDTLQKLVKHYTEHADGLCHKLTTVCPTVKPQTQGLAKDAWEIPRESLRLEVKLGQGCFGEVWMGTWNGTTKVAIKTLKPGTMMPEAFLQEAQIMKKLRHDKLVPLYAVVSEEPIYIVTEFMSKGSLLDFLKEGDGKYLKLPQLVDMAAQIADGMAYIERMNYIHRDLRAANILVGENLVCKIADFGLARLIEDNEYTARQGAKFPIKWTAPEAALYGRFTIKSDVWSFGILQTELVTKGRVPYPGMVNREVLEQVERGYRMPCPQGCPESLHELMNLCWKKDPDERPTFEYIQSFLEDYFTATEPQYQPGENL
# [8] = target: RET(Y791F) (Homo sapiens, UniProt P07949, Y791F); test: Caliper kinase profiling: RET(Y791F); assay type: biochemical
# RET(Y791F), sequence (P07949 29-1114 Y791F): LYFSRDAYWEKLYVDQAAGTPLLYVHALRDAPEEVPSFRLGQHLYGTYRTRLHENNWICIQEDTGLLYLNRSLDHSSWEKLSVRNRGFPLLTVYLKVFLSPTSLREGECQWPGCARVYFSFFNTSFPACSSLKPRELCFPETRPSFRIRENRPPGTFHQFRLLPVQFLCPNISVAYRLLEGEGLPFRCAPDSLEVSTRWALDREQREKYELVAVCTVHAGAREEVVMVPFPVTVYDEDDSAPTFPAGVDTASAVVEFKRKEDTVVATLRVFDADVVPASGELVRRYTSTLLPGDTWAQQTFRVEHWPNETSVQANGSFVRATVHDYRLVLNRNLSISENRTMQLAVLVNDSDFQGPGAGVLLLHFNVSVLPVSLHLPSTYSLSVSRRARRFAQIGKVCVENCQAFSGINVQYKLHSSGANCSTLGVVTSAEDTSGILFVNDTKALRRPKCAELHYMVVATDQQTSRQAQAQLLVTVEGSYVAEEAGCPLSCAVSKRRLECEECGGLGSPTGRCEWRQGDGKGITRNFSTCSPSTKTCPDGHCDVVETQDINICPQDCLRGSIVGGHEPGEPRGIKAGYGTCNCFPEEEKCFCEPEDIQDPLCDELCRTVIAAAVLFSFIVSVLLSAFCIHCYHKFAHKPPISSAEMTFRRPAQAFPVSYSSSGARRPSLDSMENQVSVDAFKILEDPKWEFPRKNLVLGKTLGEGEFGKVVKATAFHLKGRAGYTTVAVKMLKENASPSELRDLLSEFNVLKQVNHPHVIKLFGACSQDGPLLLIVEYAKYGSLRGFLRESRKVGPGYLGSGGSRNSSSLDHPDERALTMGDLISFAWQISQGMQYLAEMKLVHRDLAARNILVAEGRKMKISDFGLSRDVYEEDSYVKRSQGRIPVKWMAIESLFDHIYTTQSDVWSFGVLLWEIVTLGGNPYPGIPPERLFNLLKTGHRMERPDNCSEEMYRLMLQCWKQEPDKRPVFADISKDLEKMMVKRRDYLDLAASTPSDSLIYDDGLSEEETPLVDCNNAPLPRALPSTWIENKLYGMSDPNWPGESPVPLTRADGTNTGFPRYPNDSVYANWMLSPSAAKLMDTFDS
# [9] = target: T3, EPHA1 (Homo sapiens, UniProt P21709); test: Caliper kinase profiling: EPHA1; assay type: biochemical
# T3 sequence (P21709 26-976): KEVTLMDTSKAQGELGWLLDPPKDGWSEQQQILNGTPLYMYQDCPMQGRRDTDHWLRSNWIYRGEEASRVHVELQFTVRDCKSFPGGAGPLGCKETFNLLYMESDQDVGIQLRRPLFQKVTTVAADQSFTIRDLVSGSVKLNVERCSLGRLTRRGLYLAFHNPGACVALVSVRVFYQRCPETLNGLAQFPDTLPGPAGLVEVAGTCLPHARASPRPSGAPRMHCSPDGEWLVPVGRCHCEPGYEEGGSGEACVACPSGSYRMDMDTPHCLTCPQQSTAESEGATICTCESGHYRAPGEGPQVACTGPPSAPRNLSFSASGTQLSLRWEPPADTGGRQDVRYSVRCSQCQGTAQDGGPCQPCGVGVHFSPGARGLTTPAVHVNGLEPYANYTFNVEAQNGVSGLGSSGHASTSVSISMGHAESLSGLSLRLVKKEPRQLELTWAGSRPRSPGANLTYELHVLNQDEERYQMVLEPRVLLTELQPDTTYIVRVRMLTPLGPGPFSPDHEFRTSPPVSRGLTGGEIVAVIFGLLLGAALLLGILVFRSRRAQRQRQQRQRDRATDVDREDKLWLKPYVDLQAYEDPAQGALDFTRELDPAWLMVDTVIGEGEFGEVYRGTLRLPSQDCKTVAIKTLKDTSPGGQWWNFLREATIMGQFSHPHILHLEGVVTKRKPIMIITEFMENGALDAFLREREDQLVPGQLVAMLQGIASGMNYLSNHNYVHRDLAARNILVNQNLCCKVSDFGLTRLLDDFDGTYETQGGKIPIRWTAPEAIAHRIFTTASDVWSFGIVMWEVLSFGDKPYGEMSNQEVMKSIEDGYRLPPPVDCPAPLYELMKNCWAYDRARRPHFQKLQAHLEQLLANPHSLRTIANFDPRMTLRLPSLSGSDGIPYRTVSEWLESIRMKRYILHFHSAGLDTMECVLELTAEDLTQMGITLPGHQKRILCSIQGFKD
# [10] = system: ZR-75-1; test: Cell Titer-Glo cell viability: ZR-75-1; assay type: cell-based; settings: Homo sapiens; ZR-75-1, breast cancer; 72 h
# Description: Compound nos. […] This panel of cell lines includes an ER− breast carcinoma, primary breast ductal carcinoma, prostate adenocarcinoma, mammary adenocarcinoma, mammary ductal carcinoma, mammary ductal carcinoma, ovary adenocarcinoma, ER+ breast carcinoma, ER-HER2+ mammary ductal carcinoma and an ER+ mammary ductal carcinoma, respectively.
# This assay quantitates the ATP present in order to determine the number of viable cells in culture. Briefly, the compounds were incubated with the cells for 72 h, followed by cell lysis. The resulting luminescent signal is proportional to the amount of ATP present and, therefore, directly proportional to the number of cells present in culture.
# [11] = 10 nM, read-out: Average % Inh @ 10 nM
# [12] = 100 nM, read-out: Average % Inh @ 100 nM
# [13] = 1 μM, read-out: Average % Inh @ 1 μM
# FLT3, sequence (P36888 27-993): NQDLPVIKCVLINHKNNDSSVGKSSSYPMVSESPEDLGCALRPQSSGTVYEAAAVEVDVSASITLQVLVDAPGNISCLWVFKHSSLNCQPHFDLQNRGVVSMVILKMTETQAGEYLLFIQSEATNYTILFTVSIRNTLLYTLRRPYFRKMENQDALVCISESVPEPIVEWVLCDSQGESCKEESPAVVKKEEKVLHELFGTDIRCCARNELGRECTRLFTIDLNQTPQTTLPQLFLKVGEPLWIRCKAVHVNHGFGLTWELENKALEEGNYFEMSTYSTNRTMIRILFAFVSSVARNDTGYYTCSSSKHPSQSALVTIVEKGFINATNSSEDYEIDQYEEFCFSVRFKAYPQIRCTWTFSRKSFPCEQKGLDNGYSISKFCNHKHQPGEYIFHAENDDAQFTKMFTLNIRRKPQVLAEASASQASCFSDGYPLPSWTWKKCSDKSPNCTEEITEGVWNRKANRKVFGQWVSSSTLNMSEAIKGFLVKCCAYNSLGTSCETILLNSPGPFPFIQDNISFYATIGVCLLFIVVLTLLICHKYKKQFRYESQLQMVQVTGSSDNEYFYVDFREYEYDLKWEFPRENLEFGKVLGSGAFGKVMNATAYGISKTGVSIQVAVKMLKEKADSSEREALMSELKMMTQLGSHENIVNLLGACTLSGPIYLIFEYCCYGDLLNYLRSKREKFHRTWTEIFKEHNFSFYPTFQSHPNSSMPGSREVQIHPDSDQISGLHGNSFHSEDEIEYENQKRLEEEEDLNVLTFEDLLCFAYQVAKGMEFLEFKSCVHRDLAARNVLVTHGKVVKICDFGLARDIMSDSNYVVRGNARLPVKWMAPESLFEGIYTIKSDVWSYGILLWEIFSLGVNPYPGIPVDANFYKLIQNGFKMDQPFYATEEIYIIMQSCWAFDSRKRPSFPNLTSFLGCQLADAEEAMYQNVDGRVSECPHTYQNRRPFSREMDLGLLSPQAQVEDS
# ITK, sequence (Q08881 whole entry): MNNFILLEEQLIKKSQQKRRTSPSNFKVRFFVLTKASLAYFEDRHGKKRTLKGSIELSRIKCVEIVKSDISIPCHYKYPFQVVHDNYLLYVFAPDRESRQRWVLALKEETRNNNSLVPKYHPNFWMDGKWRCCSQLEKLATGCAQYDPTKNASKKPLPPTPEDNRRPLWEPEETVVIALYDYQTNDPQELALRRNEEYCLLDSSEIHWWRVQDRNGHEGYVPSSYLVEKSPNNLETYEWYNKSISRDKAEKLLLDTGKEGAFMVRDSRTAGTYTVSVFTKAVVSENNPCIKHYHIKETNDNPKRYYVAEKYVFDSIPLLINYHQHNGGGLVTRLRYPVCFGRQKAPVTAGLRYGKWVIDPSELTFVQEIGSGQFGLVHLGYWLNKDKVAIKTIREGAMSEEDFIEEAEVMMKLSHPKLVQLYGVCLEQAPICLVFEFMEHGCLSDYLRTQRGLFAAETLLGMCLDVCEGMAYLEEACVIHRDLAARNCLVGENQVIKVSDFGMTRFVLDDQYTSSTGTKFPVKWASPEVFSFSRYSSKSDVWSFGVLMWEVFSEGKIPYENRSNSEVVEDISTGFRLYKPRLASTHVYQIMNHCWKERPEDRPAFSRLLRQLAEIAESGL
inhibition at 1 µM [1],inhibition at 1 µM [2],inhibition at 1 µM [3],inhibition at 1 µM [4],inhibition at 1 µM [5],inhibition at 1 µM [6],"inhibition at 0.01 µM [7, 11]","inhibition at 0.1 µM [7, 12]","inhibition at 1 µM [7, 13]","inhibition at 0.01 µM [8, 11]","inhibition at 0.1 µM [8, 12]","inhibition at 1 µM [8, 13]","inhibition at 0.01 µM ([9]; EPHA1, 10 nM, read-out: Average % Inh @ 10 nM)","inhibition at 0.1 µM ([9]; EPHA1, 100 nM, read-out: Average % Inh @ 100 nM)","inhibition at 1 µM ([9]; EPHA1, 1 μM, read-out: Average % Inh @ 1 μM)",SMILES,IC50 [10]
40 to 59%,40 to 59%,40 to 59%,40 to 59%,> 60%,> 60%,< 39%,40 to 59%,> 60%,< 39%,40 to 59%,> 60%,< 39%,40 to 59%,> 60%,"O=C(Nc1ccc(F)nc1)C1CCCN1c1nc2c(c(Nc3cc(C4CC4)[nH]n3)n1)CCC2 (single isomer, unassigned) [Compound 2b, 1-(4-(5-cyclopropyl-1H-pyrazol-3-ylamino)-6,7-dihydro-5H-cyclopenta[d]pyrimidin-2-yl)-N-(6-fluoropyridin-3-yl)pyrrolidine-2-carboxamide]",–
–,–,–,–,–,–,–,–,–,–,–,–,–,–,–,"CC(C)c1cc(Nc2nc(N3CCCC3C(=O)Nc3ccc(F)nc3)nc3c2CCC3)n[nH]1 (single isomer, unassigned) [Compound 8b]",< 100 µM
